“Also recorded” adds a separate entry of the source.

For data set [1], the target named is holo carbonic anhydrase (Homo sapiens, UniProt P00918). The settings on record: read-out: Kd of binding to holoprotein; cited from earlier work.
Data set [2] concerns cell membranes. Kind of data set: Cell permeation of donor fluorophore.

As for `CN(C)c1ccc(-c2cnc(-c3ccc(S(N)(=O)=O)cc3)o2)cc1` [Dapoxyl sulfonamide], the Kd in data set [1] is 0.2 µM. Also, the cell permeability result in data set [2] is “readily penetrates cell membranes; also recorded: rapidly cell-permeant”.

Values taken from US7491545B2, “Excitation ratiometric fluoroscent biosensor for zinc ion at picomolar levels” (priority 2002, dated 2009).
